Legend:
Assay in all cases: KinaseProfiler Assay
[1] = biological target: Pim-1(h) (Homo sapiens, UniProt P11309)
[2] = biological target: CDK9/cyclin T1(h) (Homo sapiens, UniProt P50750)
[3] = biological target: Met(h) (Homo sapiens, UniProt P08581)
[4] = biological target: T1, PhKγ2(h) (Homo sapiens, UniProt P15735)
T1 sequence (P15735 1-406): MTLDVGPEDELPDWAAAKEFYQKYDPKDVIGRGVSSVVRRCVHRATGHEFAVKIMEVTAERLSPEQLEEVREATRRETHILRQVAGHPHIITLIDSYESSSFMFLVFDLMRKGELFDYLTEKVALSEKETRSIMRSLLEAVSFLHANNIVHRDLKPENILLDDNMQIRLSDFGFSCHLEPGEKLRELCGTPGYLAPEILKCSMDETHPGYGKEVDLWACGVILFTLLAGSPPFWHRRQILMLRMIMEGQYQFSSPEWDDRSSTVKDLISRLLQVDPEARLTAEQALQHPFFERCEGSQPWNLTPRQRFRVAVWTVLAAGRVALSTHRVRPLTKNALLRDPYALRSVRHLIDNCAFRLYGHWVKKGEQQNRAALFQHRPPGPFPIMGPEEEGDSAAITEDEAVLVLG

[5] = biological target: cKit(h) (Homo sapiens, UniProt P10721)
[6] = biological target: Tie2(Y897S)(h) (Homo sapiens, UniProt Q02763, Y897S)
[7] = biological target: Abl(h) (Homo sapiens, UniProt P00519)
[8] = biological target: EGFR(L861Q)(h) (Homo sapiens, UniProt P00533, L861Q)
[9] = biological target: T2, Axl(h) (Homo sapiens, UniProt P30530)
T2 sequence (P30530 26-894): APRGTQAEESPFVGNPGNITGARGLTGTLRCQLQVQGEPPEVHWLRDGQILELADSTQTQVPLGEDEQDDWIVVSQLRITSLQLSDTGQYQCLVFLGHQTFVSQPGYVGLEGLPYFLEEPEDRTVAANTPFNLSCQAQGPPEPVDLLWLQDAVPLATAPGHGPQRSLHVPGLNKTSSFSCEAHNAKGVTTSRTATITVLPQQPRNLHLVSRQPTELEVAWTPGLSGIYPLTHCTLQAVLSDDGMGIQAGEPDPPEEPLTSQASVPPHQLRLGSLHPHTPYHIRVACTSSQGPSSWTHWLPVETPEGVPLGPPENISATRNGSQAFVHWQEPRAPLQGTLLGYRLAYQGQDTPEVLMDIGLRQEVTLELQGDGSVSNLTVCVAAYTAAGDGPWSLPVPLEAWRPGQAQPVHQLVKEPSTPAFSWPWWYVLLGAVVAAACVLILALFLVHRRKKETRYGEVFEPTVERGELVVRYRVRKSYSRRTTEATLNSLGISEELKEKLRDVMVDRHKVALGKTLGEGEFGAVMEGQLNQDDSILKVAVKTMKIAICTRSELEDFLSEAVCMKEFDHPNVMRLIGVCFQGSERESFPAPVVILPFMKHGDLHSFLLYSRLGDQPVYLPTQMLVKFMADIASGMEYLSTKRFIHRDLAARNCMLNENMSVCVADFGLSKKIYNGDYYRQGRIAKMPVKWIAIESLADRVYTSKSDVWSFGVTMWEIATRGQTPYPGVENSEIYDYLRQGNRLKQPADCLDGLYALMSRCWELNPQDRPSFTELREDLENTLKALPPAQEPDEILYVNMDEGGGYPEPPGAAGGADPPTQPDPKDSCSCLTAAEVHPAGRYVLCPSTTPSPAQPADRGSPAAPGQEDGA

Chain of Met(h) (P08581 25-1390): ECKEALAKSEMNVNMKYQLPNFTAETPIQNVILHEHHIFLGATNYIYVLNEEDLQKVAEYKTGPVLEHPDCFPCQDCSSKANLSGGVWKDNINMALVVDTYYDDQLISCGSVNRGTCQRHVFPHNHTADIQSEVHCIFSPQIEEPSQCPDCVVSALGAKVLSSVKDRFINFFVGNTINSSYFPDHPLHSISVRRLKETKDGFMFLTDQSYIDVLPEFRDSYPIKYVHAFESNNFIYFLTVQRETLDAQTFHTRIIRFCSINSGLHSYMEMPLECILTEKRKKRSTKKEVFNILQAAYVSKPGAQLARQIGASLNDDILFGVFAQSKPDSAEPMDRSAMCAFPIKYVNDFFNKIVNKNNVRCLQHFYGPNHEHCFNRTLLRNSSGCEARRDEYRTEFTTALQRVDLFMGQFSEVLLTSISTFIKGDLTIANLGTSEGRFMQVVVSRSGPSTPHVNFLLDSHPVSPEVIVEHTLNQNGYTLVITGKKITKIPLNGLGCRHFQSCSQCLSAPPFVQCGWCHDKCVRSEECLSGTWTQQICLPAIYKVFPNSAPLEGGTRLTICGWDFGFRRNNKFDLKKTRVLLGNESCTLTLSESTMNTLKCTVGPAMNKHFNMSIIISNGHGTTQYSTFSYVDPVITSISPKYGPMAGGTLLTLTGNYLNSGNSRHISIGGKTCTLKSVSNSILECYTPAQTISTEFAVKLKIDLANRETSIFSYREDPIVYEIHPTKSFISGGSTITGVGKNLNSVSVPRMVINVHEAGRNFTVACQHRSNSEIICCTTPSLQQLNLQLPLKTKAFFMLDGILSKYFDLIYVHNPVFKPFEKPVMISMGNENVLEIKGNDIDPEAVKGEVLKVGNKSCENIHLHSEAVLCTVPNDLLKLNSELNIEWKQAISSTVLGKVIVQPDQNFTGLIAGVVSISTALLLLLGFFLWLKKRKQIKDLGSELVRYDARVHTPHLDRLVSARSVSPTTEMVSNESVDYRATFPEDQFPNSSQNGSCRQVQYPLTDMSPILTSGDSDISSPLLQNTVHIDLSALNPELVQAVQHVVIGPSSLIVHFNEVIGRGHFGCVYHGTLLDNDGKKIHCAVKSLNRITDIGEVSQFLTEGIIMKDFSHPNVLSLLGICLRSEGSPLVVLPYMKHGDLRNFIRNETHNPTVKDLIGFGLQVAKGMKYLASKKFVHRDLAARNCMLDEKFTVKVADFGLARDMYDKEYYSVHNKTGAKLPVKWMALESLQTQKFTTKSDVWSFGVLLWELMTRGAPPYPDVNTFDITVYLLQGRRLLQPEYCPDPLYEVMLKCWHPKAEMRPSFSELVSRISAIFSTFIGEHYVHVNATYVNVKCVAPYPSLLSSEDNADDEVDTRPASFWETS
Chain of EGFR(L861Q)(h) (P00533 25-1210 L861Q): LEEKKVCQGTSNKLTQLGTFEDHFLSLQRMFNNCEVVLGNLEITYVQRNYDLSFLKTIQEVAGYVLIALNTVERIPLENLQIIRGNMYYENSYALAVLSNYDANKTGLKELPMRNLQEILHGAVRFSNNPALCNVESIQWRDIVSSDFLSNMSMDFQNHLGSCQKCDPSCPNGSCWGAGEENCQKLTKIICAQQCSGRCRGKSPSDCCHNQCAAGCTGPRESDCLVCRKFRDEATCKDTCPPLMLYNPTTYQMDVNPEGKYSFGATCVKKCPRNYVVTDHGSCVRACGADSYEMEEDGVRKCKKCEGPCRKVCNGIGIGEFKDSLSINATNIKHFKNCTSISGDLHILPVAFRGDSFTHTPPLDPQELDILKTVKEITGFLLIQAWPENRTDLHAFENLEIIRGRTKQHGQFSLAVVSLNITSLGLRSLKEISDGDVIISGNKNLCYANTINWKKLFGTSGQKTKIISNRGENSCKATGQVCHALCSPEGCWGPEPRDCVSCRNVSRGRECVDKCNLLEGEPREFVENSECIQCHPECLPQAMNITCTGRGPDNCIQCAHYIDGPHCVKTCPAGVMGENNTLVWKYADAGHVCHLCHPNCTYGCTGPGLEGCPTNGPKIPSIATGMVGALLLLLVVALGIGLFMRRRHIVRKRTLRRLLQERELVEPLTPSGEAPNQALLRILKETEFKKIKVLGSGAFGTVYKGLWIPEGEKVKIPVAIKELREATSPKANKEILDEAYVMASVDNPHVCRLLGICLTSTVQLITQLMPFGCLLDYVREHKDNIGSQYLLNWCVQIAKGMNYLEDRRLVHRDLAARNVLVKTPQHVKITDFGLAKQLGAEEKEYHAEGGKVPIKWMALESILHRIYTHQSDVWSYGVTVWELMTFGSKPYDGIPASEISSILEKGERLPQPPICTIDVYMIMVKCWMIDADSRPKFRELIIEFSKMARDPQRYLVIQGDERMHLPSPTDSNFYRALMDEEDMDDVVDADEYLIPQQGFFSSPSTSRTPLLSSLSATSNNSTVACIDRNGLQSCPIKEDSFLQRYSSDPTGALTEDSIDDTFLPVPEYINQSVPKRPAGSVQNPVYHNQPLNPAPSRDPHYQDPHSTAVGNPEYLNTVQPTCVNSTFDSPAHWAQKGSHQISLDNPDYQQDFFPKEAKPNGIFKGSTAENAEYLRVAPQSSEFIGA
Chain of cKit(h) (P10721 26-976): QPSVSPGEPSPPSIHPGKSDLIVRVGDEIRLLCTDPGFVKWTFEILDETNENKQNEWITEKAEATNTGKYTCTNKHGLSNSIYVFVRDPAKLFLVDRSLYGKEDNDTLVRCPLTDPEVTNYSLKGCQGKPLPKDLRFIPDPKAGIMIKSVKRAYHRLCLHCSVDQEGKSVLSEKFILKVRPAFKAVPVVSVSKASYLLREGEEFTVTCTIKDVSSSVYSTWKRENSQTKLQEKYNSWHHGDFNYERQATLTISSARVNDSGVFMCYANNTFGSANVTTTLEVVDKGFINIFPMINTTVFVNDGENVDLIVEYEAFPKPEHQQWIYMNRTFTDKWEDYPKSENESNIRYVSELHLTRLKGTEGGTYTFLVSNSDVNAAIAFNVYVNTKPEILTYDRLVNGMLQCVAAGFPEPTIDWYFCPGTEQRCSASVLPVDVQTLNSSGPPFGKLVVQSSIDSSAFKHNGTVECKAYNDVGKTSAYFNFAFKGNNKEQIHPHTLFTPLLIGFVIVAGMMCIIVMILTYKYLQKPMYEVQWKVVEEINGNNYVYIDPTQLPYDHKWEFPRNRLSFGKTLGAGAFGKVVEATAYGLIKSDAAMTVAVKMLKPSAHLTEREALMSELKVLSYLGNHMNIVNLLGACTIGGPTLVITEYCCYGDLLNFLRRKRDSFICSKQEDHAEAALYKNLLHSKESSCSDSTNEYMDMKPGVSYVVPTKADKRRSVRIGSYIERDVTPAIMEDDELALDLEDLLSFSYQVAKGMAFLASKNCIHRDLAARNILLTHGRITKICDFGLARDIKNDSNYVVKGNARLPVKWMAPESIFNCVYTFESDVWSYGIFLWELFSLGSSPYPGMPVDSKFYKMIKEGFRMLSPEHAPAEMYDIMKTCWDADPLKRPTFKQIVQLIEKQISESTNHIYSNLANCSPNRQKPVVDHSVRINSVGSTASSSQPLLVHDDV
Chain of Pim-1(h) (P11309 whole entry): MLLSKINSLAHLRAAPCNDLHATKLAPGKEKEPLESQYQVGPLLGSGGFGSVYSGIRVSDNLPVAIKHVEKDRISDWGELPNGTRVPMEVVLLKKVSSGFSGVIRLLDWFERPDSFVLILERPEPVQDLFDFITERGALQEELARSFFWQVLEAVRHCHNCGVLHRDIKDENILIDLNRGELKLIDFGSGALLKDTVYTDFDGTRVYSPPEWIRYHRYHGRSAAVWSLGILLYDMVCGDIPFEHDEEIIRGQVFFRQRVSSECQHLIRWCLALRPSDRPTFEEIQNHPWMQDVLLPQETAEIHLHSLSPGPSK
Chain of Abl(h) (P00519 whole entry): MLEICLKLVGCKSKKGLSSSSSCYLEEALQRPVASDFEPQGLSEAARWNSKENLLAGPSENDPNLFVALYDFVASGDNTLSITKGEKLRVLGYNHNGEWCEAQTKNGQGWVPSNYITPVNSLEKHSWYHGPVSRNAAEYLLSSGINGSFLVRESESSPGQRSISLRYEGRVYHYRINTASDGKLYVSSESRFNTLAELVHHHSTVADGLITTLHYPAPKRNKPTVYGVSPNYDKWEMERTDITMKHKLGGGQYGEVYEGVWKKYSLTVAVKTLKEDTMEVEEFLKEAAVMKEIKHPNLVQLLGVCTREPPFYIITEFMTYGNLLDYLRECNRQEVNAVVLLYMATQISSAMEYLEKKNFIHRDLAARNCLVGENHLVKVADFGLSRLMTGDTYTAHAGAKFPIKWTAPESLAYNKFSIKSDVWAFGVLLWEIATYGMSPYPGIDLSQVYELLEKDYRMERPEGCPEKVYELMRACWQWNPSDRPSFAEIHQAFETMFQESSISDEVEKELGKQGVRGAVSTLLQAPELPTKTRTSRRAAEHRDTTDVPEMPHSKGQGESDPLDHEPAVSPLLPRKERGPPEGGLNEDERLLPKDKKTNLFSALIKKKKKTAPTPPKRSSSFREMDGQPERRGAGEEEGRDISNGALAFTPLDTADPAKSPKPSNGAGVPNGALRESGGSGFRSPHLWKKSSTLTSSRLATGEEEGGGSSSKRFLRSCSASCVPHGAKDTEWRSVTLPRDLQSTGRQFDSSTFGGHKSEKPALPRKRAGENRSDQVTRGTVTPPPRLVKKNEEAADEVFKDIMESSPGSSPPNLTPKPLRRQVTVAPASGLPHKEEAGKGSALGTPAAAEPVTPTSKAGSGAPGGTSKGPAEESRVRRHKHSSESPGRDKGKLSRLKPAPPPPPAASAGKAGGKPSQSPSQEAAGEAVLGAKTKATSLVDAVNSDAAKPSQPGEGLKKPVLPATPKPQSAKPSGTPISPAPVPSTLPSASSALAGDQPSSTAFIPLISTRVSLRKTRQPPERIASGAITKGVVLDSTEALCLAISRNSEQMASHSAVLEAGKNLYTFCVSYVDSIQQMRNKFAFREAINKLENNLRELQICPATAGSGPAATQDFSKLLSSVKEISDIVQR

SMILES: CC(C)CCC(=O)[C@]1(O)C(O)=C(C(=O)C(C)C)C(=O)[C@H]1CCC(C)C [TH2, tetrahydroiso-cohumulone]
- kinase inhibition ([1]; 1 μg/ml): 86% of control
- kinase inhibition ([1]; 5 μg/ml): 100% of control
- kinase inhibition ([1]; 25 μg/ml): 87% of control
- kinase inhibition ([1]; 50 μg/ml): 84% of control
- kinase inhibition ([1]; 100 μg/ml): 55% of control
- kinase inhibition ([2]; 1 μg/ml): 99% of control
- kinase inhibition ([2]; 5 μg/ml): 102% of control
- kinase inhibition ([2]; 25 μg/ml): 78% of control
- kinase inhibition ([2]; 50 μg/ml): 63% of control
- kinase inhibition ([2]; 100 μg/ml): 49% of control
- kinase inhibition ([3]; 1 μg/ml): 114% of control
- kinase inhibition ([3]; 5 μg/ml): 113% of control
- kinase inhibition ([3]; 25 μg/ml): 97% of control
- kinase inhibition ([3]; 50 μg/ml): 83% of control
- kinase inhibition ([3]; 100 μg/ml): 61% of control
- kinase inhibition ([4]; 1 μg/ml): 112% of control
- kinase inhibition ([4]; 5 μg/ml): 116% of control
- kinase inhibition ([4]; 25 μg/ml): 114% of control
- kinase inhibition ([4]; 50 μg/ml): 88% of control
- kinase inhibition ([4]; 100 μg/ml): 63% of control
- kinase inhibition ([5]; 1 μg/ml): 110% of control
- kinase inhibition ([5]; 5 μg/ml): 87% of control
- kinase inhibition ([5]; 25 μg/ml): 86% of control
- kinase inhibition ([5]; 50 μg/ml): 96% of control
- kinase inhibition ([5]; 100 μg/ml): 95% of control
- kinase inhibition ([6]; 1 μg/ml): 82% of control
- kinase inhibition ([6]; 5 μg/ml): 46% of control
- kinase inhibition ([6]; 25 μg/ml): 27% of control
- kinase inhibition ([6]; 50 μg/ml): 35% of control
- kinase inhibition ([6]; 100 μg/ml): 32% of control
- kinase inhibition ([7]; 1 μg/ml): 92% of control
- kinase inhibition ([7]; 5 μg/ml): 87% of control
- kinase inhibition ([7]; 25 μg/ml): 70% of control
- kinase inhibition ([7]; 50 μg/ml): 64% of control
- kinase inhibition ([7]; 100 μg/ml): 40% of control
- kinase inhibition ([8]; 1 μg/ml): 98% of control
- kinase inhibition ([8]; 5 μg/ml): 91% of control
- kinase inhibition ([8]; 25 μg/ml): 94% of control
- kinase inhibition ([8]; 50 μg/ml): 99% of control
- kinase inhibition ([8]; 100 μg/ml): 93% of control
- kinase inhibition ([9]; 1 μg/ml): 106% of control
- kinase inhibition ([9]; 5 μg/ml): 110% of control
- kinase inhibition ([9]; 25 μg/ml): 100% of control
- kinase inhibition ([9]; 50 μg/ml): 86% of control
- kinase inhibition ([9]; 100 μg/ml): 65% of control

— patent US20100137449A1, “SUBSTITUTED 1,3-CYCLOPENTADIONE MULTI-TARGET PROTEIN KINASE MODULATORS OF CANCER, ANGIOGENESIS AND THE INFLAMMATORY PATHWAYS ASSOCIATED THEREWITH” (METAPROTEOMICS, LLC, priority 2007, published 2010)
